Data set [1] is described as follows: cytotoxicity on non-infected cells (MTT test). Format: cell-based. The conditions noted are these: human. Summed up:
(§1)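 Non-infected cells incubated 5 days with compounds; viability by MTT reduction to formazan via mitochondrial dehydrogenases, read at OD540. CC50 is the concentration halving OD540.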

For data set [2], the system named is CEM-SS cells. Briefly: cytotoxicity on non-infected cells (MTT test). Format: cell-based. The following applies: Table 3; non-infected cells, MTT, 5 days. The method, boiled down: as §1
For orientation: Formazan colour is commonly taken as a measure of viable cells.

Data set [3] relates to HIV-1 IIIB. Briefly: anti-HIV-1 activity, HIV-1 IIIB/PBMC. The following applies: Human immunodeficiency virus 1, Table 4. It counts as cell-based. Here is the method:
(§2) The virus production was measured by quantifying the activity of the inverse transcriptase associated with viral particles released into the culture supernatant. In short, cells were infected with 100 TCID50 for 30 minutes; after adsorption of the virus, unbound particles were removed by two washings and the cells were cultivated in the presence of different concentrations of the compounds tested for 5 days before determining the viral production. The concentration inhibiting 50% of the viral multiplication (IC50) came from the computer plot of the median effect of the dose effect results (Chou et al. Elsevier Science Publishers, Cambridge U.K. (1985), 19-28).
(§3) Thirty two compounds according to the invention were studied for their anti-HIV-1 biological activity. […] This compound was then tested with other colonies and other cell lines (Table 4).

Data set [4] concerns HIV-2 D194. Briefly: anti-HIV-2 activity, HIV-2 D194/PBMC. It counts as cell-based. The conditions noted are these: Human immunodeficiency virus 2, Table 4. On the procedure: as §2, §3
Data set [5] concerns HIV-1 4200 type E (primary isolate). Put plainly: anti-HIV-1 activity, HIV-1 4200 type E (primary isolate)/PBMC. Format: cell-based. The following applies: Human immunodeficiency virus 1, Table 4. On the procedure:
as §2, §3

Data set [6] relates to HIV-1 6 type D (primary isolate). Put plainly: anti-HIV-1 activity, HIV-1 6 type D (primary isolate)/PBMC. It counts as cell-based. The following applies: Human immunodeficiency virus 1, Table 4. On the procedure: as §2, §3
For data set [7], the target named is T1, IT of recombinant HIV-1 (Human immunodeficiency virus type 1 group M subtype B, UniProt P03369).
T1 construct: purify the IT enzyme of the recombinant HIV-1; made in house; host or cells: yeast cells transformed with the pAB 24/IT-4 vector
Briefly: inhibition of the inverse transcriptase of recombinant HIV-1. Format: biochemical. On the procedure: Yeast cells transformed with the pAB 24/IT-4 vector were used to purify the IT enzyme of the recombinant HIV-1 as described by Sallafranque-Andreola et al. (1989 Eur. J. Biochem. 184, 364-374).
(§4) Incubation was carried out at 37° C. for 10 minutes in the presence of various matrix-primers.
(§5) a) Poly C-oligo dG: the reaction mixture contained a final volume of 0.05 ml, Tris-HCl 50 mM pH 8.0, MgCl2 5 mM, dithiothreitol 4 mM, 0.48 A260 /ml of poly C-oligo dG (5:1), 1.0 μCi of [^3 H]dGTP (28 Ci/mmole), dGTP 2 μM, KCl 80 mM, 1 μg of bovine serum albumin and IT 20-50 nM.
(§6) b) Poly A-oligo dT: the same conditions as in a), except that 0.48 A260 /ml of poly A-oligo dT (5:1), 0.5 μCi of [^3 H]dTTP (46 Ci/mmole), dTTP 20 μM were used.
(§7) The reactions were stopped by adding in the cold 1 ml of 10% trichloroacetic acid plus sodium pyrophosphate 0.1 M. The precipitates were filtered through nitrocellulose membranes, washed with 2% trichloroacetic acid, dried and counted in a PPO/POPOP/toluene scintillation mixture.
(§8) All the compounds were dissolved in dimethyl#sulphoxide (DMSO). The test samples were prepared in the presence of the same final concentration of DMSO. IC50 is the concentration required to inhibit the activity of the IT of the recombinant HIV-1 by 50%.

Data set [8] concerns the target T2, inverse transcriptase of HIV-1 (HIV-1 M:B_ARV2/SF2, UniProt P03369). Briefly: inverse transcription with HIV-1 RNA as natural matrix (complementary DNA, gel). It counts as biochemical. The conditions noted are these: FIG. 10; compound 7c 40-400 nM. Here is the method: FIG. 10 illustrates the dose effect of compound 7c on the inhibition of the inverse transcriptase of HIV-1. The expected complementary DNA, 147 nucleotides long, is shown to the left of the gel (well 1). Wells 2 to 5 correspond to decreasing concentrations of compound 7c (well 2: 400 nM, well 3: 300 nM: well 4: 100 nM and well 5: 40 nM).
The pmCG6 plasmid containing the nucleotide fragment 1-4005 of the HIV-1 (pmal) in psP64, under the control of the promoter of the T7 bacteriophage was provided by Dr. J. L. Darlix. A strain of E.coli HB 101 (1035) recA was used for the amplification of the plasmid. After digestion of this clone with Hinc II and transcription in vitro by using the RNA T7 polymerase, RNAs were obtained from the +50 position of the pmal sequence. The transcription was carried out in vitro and the inverse transcription in the manner described by B. Bordier et al. (1992 Nucleic Acids Res. 20, 5999-6006).
as §8

In data set [9] the target is T2, inverse transcriptase of HIV-1. Briefly: enzymatic kinetic analysis of IT inhibition (Lineweaver-Burk). It counts as biochemical. Here is the method:
FIG. 12 is a double-reciprocal (Lineweaver-Burk) representation of the inhibition of the inverse transcriptase of HIV-1 by compound 7c with the poly C-oligo dG as a matrix-primer couple and dGPT as substrate.
FIG. 13 is a double-reciprocal representation, similar to […], in which the poly A-oligo dT is used as a matrix-primer couple and dTTP as substrate.
as §4, §5, §6, §7

Each structure is given as a SMILES string.

As usually defined, the CC50 is the concentration at which the toxic effect on the cells reaches its halfway point. Lower therefore signals harm at low concentration. As usually defined, the IC50 is the concentration needed to halve the response being measured. Regarding `CCc1c(C)[nH]c(=O)c([N+](=O)[O-])c1Sc1cc(C)cc(C)c1` [Compound 7c, 5-ethyl-6-methyl-3-nitro-4-(3', 5'-dimethylphenyl)thio-pyridin-2(1H)-one], the CC50 at 120 h in [1] (cem-ss cells, Table 4, line HIV-1 (LA1)/CEMSS) was more than 10000 nM; in [1] (Table 2, non-infected CEM-SS cells, MTT, 5 days), more than 10000 nM. Besides, the CC50 in data set [2] is more than 10000 nM. Besides, the IC50 is less than 0.03 nM in data set [3]; more than 10000 nM in data set [4]; less than 0.1 nM in [5]; less than 0.1 nM in data set [6]; 30 nM in [7]. In addition, the “effect on activity of the IT of HIV-1 in HIV-1/HIV-2 comparison” value in [7] (FIG. 9) is listed as “well inhibited”. The “IT inhibition according to matrix-primer couple” value in [7] (poly C-oligo dG compared with poly A-oligo dT (FIG. 9)) is “Better inhibition was obtained in the presence of poly C-oligo dG compared with poly A-oligo dT”. Moreover, the “inhibition with RNA from HIV-1 as natural matrix” value in data set [8] is recorded as “strong inhibition”. Further, the type of inhibition result was “non-competitive” in data set [9] (as regards dGTP substrate, poly C-oligo dG matrix-primer (FIG. 12)) and “competitive” in [9] (poly A-oligo dT matrix-primer, dTTP substrate (FIG. 13)).
